Measured values published in PMC10218941, “Design, Synthesis, Antiproliferative Actions, and DFT Studies of New Bis–Pyrazoline Derivatives as Dual EGFR/BRAF^V600E Inhibitors” (International Journal of Molecular Sciences, 2023).

Tests used:
Type in all cases: cell-based, human
caspase-8 = assay: Caspase-8 level assay; settings: MCF-7 cells; for Caspase-8 Fold Change: versus untreated control
Protocol: (§1) Additionally, the effects of compounds 12 and 17 on the levels of caspase-8, Bax, and Bacl-2 in the MCF-7 cancer cell line and staurosporine as a control were examined. […]
The solution in the wells should change from blue to yellow. Read the absorbance of each well at 450 nm having blanked the plate reader against a chromogen blank composed of 100 μl each of Stabilized Chromogen and Stop Solution. Read the plate within 2 hours after adding the Stop Solution. Use a curve fitting software to generate the standard curve. A four-parameter algorithm provides the best standard curve fit. Read the concentrations for unknown samples and controls from the standard curve. Multiply value(s) obtained for sample(s) by the appropriate dilution factor to correct for the dilution in step 3. Samples producing signals greater than that of the highest standard should be diluted in Standard Diluent Buffer and reanalyzed.
4.2.4. Caspase-8 activation assay
Cells were obtained from American Type Culture Collection, cells were grown in RPMI 1640 containing 10% fetal bovine serum at 37°C, stimulated with the compounds to be tested for caspase8, and lysed with Cell Extraction Buffer. This lysate was diluted in Standard Diluent Buffer over the range of the assay and measured for human active caspase-8 content. (Cells are Plated in a density of 1.2 – 1.8 × 10,000 cells/well in a volume of 100µl complete growth medium + 100 ul of the tested compound per well in a 96-well plate for 24 hours before the enzyme assay for Tubulin.). The absorbance of each microwell was read on a spectro-photometer at 450 nm. A standard curve is prepared from 7human Caspase-8 standard dilutions and human Caspase-8 concentration determined. […]

Bax = Bax level assay; settings: MCF-7 cells; for Bax Fold Change: versus untreated control
Protocol: as §1
Cells were obtained from American Type Culture Collection, cells were grown in RPMI 1640 containing 10% fetal bovine serum at 37°C, stimulated with the compounds to be tested for caspase8, and lysed with Cell Extraction Buffer. This lysate was diluted in Standard Diluent Buffer over the range of the assay and measured for human active caspase-8 content. […]
4.2.5. Bax activation assay
Bring all reagents, except the human Bax-α Standard, to room temperature for at least 30 minutes prior to opening. The human Bax-α Standard solution should not be left at room temperature for more than 10 minutes. All standards, controls and samples should be run in duplicate. Refer to the Assay Layout Sheet to determine the number of wells to be used and put any remaining wells with the desiccant back into the pouch and seal the ziploc. Store unused wells at 4 °C. Pipet 100 μL of Assay Buffer into the S0 (0 pg/mL standard) wells. Pipet 100 μL of Standards #1 through #6 into the appropriate wells. Pipet 100 μL of the Samples into the appropriate wells. Tap the plate gently to mix the contents. Seal the plate and incubate at room temperature on a plate shaker for 1 hour at ~500 rpm. Empty the contents of the wells and wash by adding 400 μL of wash solution to every well. Repeat the wash 4 more times for a total of 5 washes. After the final wash, empty or aspirate the wells and firmly tap the plate on a lint free paper towel to remove any remaining wash buffer. Pipet 100 μL of yellow Antibody into each well, except the Blank. Seal the plate and incubate at room temperature on a plate shaker for 1 hour at ~500 rpm. Empty the contents of the wells and wash by adding 400 μL of wash solution to every well. Repeat the wash 4 more times for a total of 5 washes. After the final wash, empty or aspirate the wells and firmly tap the plate on a lint free paper towel to remove any remaining wash buffer. Add 100 μL of blue Conjugate to each well, except the Blank. Seal the plate and incubate at room temperature on a plate shaker for 30 minutes at ~500 rpm. Empty the contents of the wells and wash by adding 400 μL of wash solution to every well. Repeat the wash 4 more times for a total of 5 washes. After the final wash, empty or aspirate the wells and firmly tap the plate on a lint free paper towel to remove any remaining wash buffer. Pipet 100 μL of Substrate Solution into each well. Incubate for 30 minutes at room temperature on a plate shaker at ~500 rpm. Pipet 100 μL Stop Solution to each well. Blank the plate reader against the Blank wells, read the optical density at 450 nm. Calculate the average net Optical Density (OD) bound for each standard and sample by subtracting the average Blank OD from the average OD for each standard and sample.
Using linear graph paper, plot the Average Net OD for each standard versus Bax concentration in each standard. Approximate a straight line through the points. The concentration of Bax in the unknowns can be determined by interpolation. […]
Cover with a plate cover and incubate at room temperature, on a microplate shaker at 100 rpm if available, for 2 hours. Remove plate cover and empty the wells.
(§2) Wash microwell strips 3 times as described in step 2. Add 100 μL of diluted Streptavidin-HRP to all wells, including the blank wells. Cover with a plate cover and incubate at room temperature, on a microplate shaker at 100 rpm if available, for 1 hour. Remove plate cover and empty the wells.
(§3) Wash microwell strips 3 times as described in step 2. Proceed to the next step. Pipette 100 μl of mixed TMB Substrate Solution to all wells, including the blanks. Incubate the microwell strips at room temperature (18° to 25°C) for about 15 minutes, if available on a rotator set at 100 rpm.
Avoid direct exposure to intense light. […]

Bcl-2 = Bcl-2 level assay; settings: MCF-7 cells; for Bcl-2 Fold Reduction: versus untreated control
Protocol: as §1
4.2.6. Bcl-2inhibition assay
Mix all reagents thoroughly without foaming before use. Wash the microwells twice with approximately 300 μL Wash Buffer per well with thorough aspiration of microwell contents between washes. Take caution not to scratch the surface of the microwells. After the last wash, empty the wells and tap microwell strips on absorbent pad or paper towel to remove excess Wash Buffer. Use the microwell strips immediately after washing or place upside down on a wet absorbent paper for not longer than 15 minutes. […] Add 100 μL of Sample […]
Diluent in duplicate to all standard wells and to the blank wells. Prepare standard (1:2 dilution) in duplicate ranging from 32 ng/mL to 0.5 ng/mL. Add 100 μL of Sample Diluent, in duplicate, to the blank wells. Add 80 μL of Sample Diluent, in duplicate, to the sample wells. Add 20 μL of each Sample, in duplicate, to the designated wells. Add 50 μL of diluted biotin-conjugate to all wells, including the blank wells. Cover with a plate cover and incubate at room temperature, on a microplate shaker at 100 rpm if available, for 2 hours. Remove plate cover and empty the wells.
as §2, §3
Avoid direct exposure to intense light. The point, at which the substrate reaction is stopped, is often determined by the ELISA reader. Many ELISA readers record absorbance only up to 2.0
O.D. Therefore, the color development within individual microwells must be watched by the person running the assay and the substrate reaction stopped before positive wells are no longer properly detectable. Stop the enzyme reaction by quickly pipetting 100 μL of Stop Solution into each well, including the blank wells. It is important that the Stop Solution is spread quickly and uniformly throughout the microwells to completely inactivate the enzyme. Results must be read immediately after the Stop Solution is added or within one hour if the microwell strips are stored at 2 - 8°C in the dark. Read absorbance of each microwell on a spectrophotometer using 450 nm as the primary wavelength.
4.3. Statistical analysis
Computerized Prism 5 program was used to statistically analyzed data using one-way ANOVA test followed by Tukey’s as post ANOVA for multiple comparison at P ≤.05. Data were presented

COc1ccc(C2CC(c3ccc(NC(=O)COc4ccc(C5=NNC(c6ccc(OC)c(OC)c6)C5)cc4)cc3)=NN2)cc1 (stereo not drawn) [Compound 17, 2-(4-(5-(3,4-Dimethoxyphenyl)-4,5-dihydro-1H-pyrazol-3-yl)phenoxy)-N-(4-(5-(4-methoxyphenyl)-4,5-dihydro-1H-pyrazol-3-yl)phenyl)acetamide]
Caspase-8 Conc (caspase-8): 1.77 ng/mL
Caspase-8 Fold Change (caspase-8): 20
Bax Conc (Bax): 285 pg/mL
Bax Fold Change (Bax): 35
Bcl-2 Conc (Bcl-2): 1.15 ng/mL
Bcl-2 Fold Reduction (Bcl-2): 4

COc1ccc(C2CC(c3ccc(OCC(=O)Nc4ccc(C5=NNC(c6ccc(OC)c(OC)c6)C5)cc4)cc3)=NN2)cc1 (stereo not drawn) [Compound 12, 2-(4-(5-(4-Methoxyphenyl)-4,5-dihydro-1H-pyrazol-3-yl)phenoxy)-N-(4-(5-(3,4-dimethoxyphenyl)-4,5-dihydro-1H-pyrazol-3-yl)phenyl)acetamide]
Caspase-8 Conc (caspase-8): 1.87 ng/mL
Caspase-8 Fold Change (caspase-8): 21
Bax Conc (Bax): 296 pg/mL
Bax Fold Change (Bax): 37
Bcl-2 Conc (Bcl-2): 1.05 ng/mL
Bcl-2 Fold Reduction (Bcl-2): 5

CN[C@@H]1C[C@H]2O[C@@](C)([C@@H]1OC)n1c3ccccc3c3c4c(c5c6ccccc6n2c5c31)C(=O)NC4 [Staurosporine, reference compound]
Caspase-8 Conc (caspase-8): 1.80 ng/mL
Caspase-8 Fold Change (caspase-8): 20
Bax Conc (Bax): 280 pg/mL
Bax Fold Change (Bax): 35
Bcl-2 Conc (Bcl-2): 1.10 ng/mL
Bcl-2 Fold Reduction (Bcl-2): 5
